According to US10212958B2, “Method for producing stabilized whole wheat flour” (Intercontinental Great Brands LLC, priority 2011, dated 2019):
Several values for one entry are separate records, joined by “and”; a condition that tells them apart may be missing. Equal values may be shown once. Blank lines part the entries; values can stand above or below the molecule they belong to.

What was measured:
[1] = tested on: Novozyme lipase from Aspergillus oryzae; assay: Titrimetric lipase activity after 40 min pre-incubation of the enzyme in acid solution; type: biochemical
Experimental: The objective of this example was to test the effect of acid type and concentration on the lipase activity after pre-incubation of the enzyme for 40 minutes in acid solution. The following acids and levels were tested; (1) 5 ml lactic acid (8 g/1000 ml pH 2.57), add 20 μl lipase and 980 μl water inhibition 40 min; (2) 5 ml lactic acid (2 g/1000 ml pH 2.85), add 20 μl lipase and 980 μl water inhibition 40 min; (3) 5 ml lactic acid (16 g/1000 ml pH 2.48), add 20 μl lipase and 980 μl water inhibition 40 min; (4) 5 ml acetic acid (1 g/1000 ml pH 2.80), add 20 μl lipase and 980 μl water inhibition 40 min; (5) 5 ml HCL (4 g/1000 ml, pH 1.5), add 20 μl lipase and 980 μl water inhibition 40 min; (6) 5 ml green tea extract (8 g/1000 ml), add 20 μl lipase and 980 μl water inhibition 40 min.
Lipase (3.1.1.3) activity was adapted from the method set forth in “Worthington, Von.; The Worthington Manual; 1993 from Worthington Biochemical Corporation, 730 Vassar Avenue, Lakewood, N.J. 08701”.
H. Olive oil-gum Arabic emulsion: Prepare by dissolving 16.5 grams of gum Arabic in 130 ml of reagent grade water. Once the material is in solution, dilute to a final volume of 165 ml with reagent grade water. Add 20 ml of reagent grade olive oil and 15 grams crushed ice. Blend the mixture in a Waring blender at low speed for 3 min and filter the emulsion through glass wool. Prepare fresh daily. Enzyme:
The titration can be measured with a laboratory pH meter (a Corning pH meter 360i equipped with A-58905-66 High-performance combination pH electrode).
Blank rate determination: Adjust the pH of the reaction mixture to 8.0 and record the volume of titrant required to maintain the pH at 8.0 for 3-4 minutes after a constant rate is achieved. Determine the “blank rate” as the volume of titrant added per minute from the final linear portion of the curve.
Sample determination: at zero time, add appropriately diluted enzyme and readjust the pH to 8.0 if necessary. Record the volume of titrant required to maintain the pH at 8.0 for 5-6 minutes. Determine the “sample rate” as the volume of titrant added per minute from the linear portion of the curve.

[2] = AACC 10-53 Cookie Test Baking; details: lactic acid 3000 ppm, green tea extract 7000 ppm
Text: AACC 10-53 Cookie Test Baking Method was designed at Nabisco Biscuit Company for evaluation of ingredient functionality and predictive correlation between sensory and mechanical texture analysis (mechanical texture analysis by TAXT2 Texture analyzer 3 point bend or puncture test). The test is an improvement over AACC 10-52 Sugar-Snap Cookie Test Baking Method as confirmed by USDA Soft Wheat Quality Lab (Wooster Ohio). The AACC 10-53 test was adopted as the official method of the American Association of Cereal Chemists after collaborative testing by the Soft Wheat Quality Committee in 1992. The equipment, cookie dough composition, mixing procedure, baking procedure, measurement procedure, etc. used in the test are: The Standard Formulation AACC 10-53 Single Batch to Make 4 Test Cookies is: [table] [table] The general mixing procedure used is: The baketime is defined as the time required to produce a weight loss of 13.85% during baking of the formulation at 400 F. Portion four 60 g pieces of dough with minimum deformation and place on cookie sheet. Lay rolling pin across gauge bars of cookie sheet allowing weight of pin to compress the dough pieces without additional compressive force. Pick up rolling pin and place on gauge bars at end of cookie sheet, and roll only once away from you. Cut cookies with 60 mm cutter, and carefully lift scrap dough with small spatula. […]

[3] = Whole grain flour pH in 10% slurry; type: physicochemical
[4] = Solvent Retention Capacity (SRC) of flour, adapted from AACC 56-10; type: physicochemical; set-up: Flour SRC sucrose / Flour SRC Sodium carbonate / Flour SRC Lactic acid / Flour SRC Water: unit not given here
Experimental: Solvent Retention Capacity (SRC) serves as a practical test to monitor the function of specific flour components, such as the amount of damaged starch. The SRC assay method used was adapted and modified from AACC method 56-10, according to the following procedure:
• 50 ml centrifuge tubes+caps • 5% weight sodium carbonate solvent • Centrifuge (IEC, Centra GP8, 269 rotor, 2130 rpm) Procedure: • 1. Weigh 50 ml centrifuge tubes+caps (for special tubes weight O-ring seals) • 2. Weigh and add 5.00 g of bran-germ mixture to each tube (determine moisture content of mixture) • 3. Add 25 g of solvent (pre-weighed solvent aliquots) to each tube • 4. Allow it to hydrate for 20 min, shaking every 5 min (5, 10, 15, 20) • 5. Centrifuge for 15 min at 1000×g • 6. Decant supernatant and drain 5 min at 45° angle and 5 min at 90° angle. • 7. Put cap back and weigh pellet

[5] = tested on: free fatty acids formed in whole grain flour; assay: Free fatty acid content of whole grain flour, fresh and after accelerated storage (SPE, GC-FID); set-up: species or system wheat
Experimental: The objective of this example was to test the effect of acid tempering on the stability of whole grain flour during storage. The amount of free fatty acid formed was measured after flour storage in a sealed glass jar for 30 days under accelerated storage conditions of 92° F. […] The flours tested were: […] Results were compared to the amount of free fatty acids formed in untreated control flour. Whole grain flours were made with natural proportion of bran component and endosperm obtained from the flour mill. Whole grain flour ash content was used to confirm composition. Free fatty acid content of whole grain flour (fresh flour and 30 days aged flour) was determined according to the following method: Free fatty acid content of the flours was adapted from the method set forth in “Jong, C.; Badings, H. T.; Journal of High Resolution Chromatography; 1990; Determination of Free Fatty Acids in Milk and Cheese Procedures for Extraction, Clean up, and Capillary Gas Chromatography Analysis”. Lipid extracts, containing free fatty acids, are obtained from foods by extraction with acidified organic solvents. The anhydrous lipid extracts are passed through a weak anion exchange SPE cartridge to isolate the free fatty acids from the coextracted material, particularly neutral glycerides. • a. […] HP5890 Series II] • b. Autosampler compatible with the GC, [example: HP7673] • c. Software system capable of collecting chromatographic data, calculating statistics and tabulating results • d. Analytical balance with 0.0001 g resolution, 150 g capacity • e. Centrifuge capable of 3000 rpm (2050 rcf), with temperature control, (optional) • f. Polytron able to homogenize samples at 25000 rpm [example: Brinkmann Instruments, Polytron Kinematica AG Model PT 1300 D] • g. Vortex Mixer • h. Solvent Dispensers with inert plastic components [example: […] Column: […] SPE cartridges: […] Glass centrifuge test tubes with teflon lined screw caps, size: 16×125 mm • 4. Corex glass centrifuge tubes with teflon lined screw caps, 45 mL [example: COREX II No. 8422-A] • 5. Whatman Filter paper #1, 125 mm Diameter • 6. Pyrex brand filtering funnel, short stem • 7. Disposable Culture Tubes, borosilicate glass 16×150 mm [example: VWR Cat #47729-580] • 8. Glass vials with teflon lined screw caps, 4 mL. [example: Kimble Cat #60940A 4] • 9. Autosampler vials, borosilicate glass, crimp-top with teflon lined caps • 10. Amber borosilicate bottles with teflon lined screw cap, 100 mL • 11. Clear borosilicate bottle with teflon lined screw cap, 250 mL • 12. Graduated cylinders: 250 mL, 100 mL • 13. […] Glass volumetric pipettes class A 5, 2, 1 mL and graduated 10, 5 mL • 15. Disposable Pasteur pipettes: 53⁄4 and 9 inch • 16. Microspatula, spatula, and polypropylene sample transfer tubes Reagents/Solutions Reagents and Standards • 1. Ethanol-200 proof, anhydrous, 99.5%+, stored in amber glass [Aldrich #45, 983-6 or equivalent] • 2. Hexanes-GC grade [B&J #216-4 or equivalent] • 3. iso-Propanol-GC grade [B&J #323-4 or equivalent] • 4. Methyl-tert-butylether (MTBE)-GC grade [B&J #242-4 or equivalent] • 5. Methylene chloride-GC grade [B&J #299-4 or equivalent] • 6. […] Sulfuric acid-ACS reagent, 95.0-98.0% [Fisher Reagent ACS #A800-500 or equivalent] • 8. Water Type 1 [Fisher HPLC #W5-4 or equivalent] • 9. Diatomaceous Earth [Leco part #502-327 or equivalent] • 10. […] Standards (Standard Preparation See Appendix 13.1) • a. Internal Standard: 11:0; Surrogates: 9:0 and 13:0 • b. Matrix Spike (MS) standard working solution in ethanol: MS @ 50 µg/mL. This level may be appropriate for low to mid-level determinations. Generally the FFA levels vary tremendously within a given matrix. Consequently a spike solution of varying amounts per individual FFA may be necessary per matrix. • c. Calibration Standards in hexanes establish linear range: […] Comment: 18:1 and 18:2 calculations are based on 18:0 response factor. • d. […]

[6] = Flour moisture (AACC Method 44-15A); type: physicochemical; details: coarse bran fraction before recombining
Experimental: Whole grain flour pH was measured in a 10% slurry (one part flour to 9 part water) using a Corning pH meter 360i equipped with an A-58905-66 High-performance combination pH electrode. Ash is determined according to AOAC official method 923.03 for measuring ash in flour. Flour moisture was determined according to AACC Method 44-15A.

[7] = lactic acid 3000 ppm, green tea extract 7000 ppm
[8] = after 30 days at 92 F, flour at about pH=4.5

- Lipase activity ([1]; 40 min acid pre-treat 0.005 g/15 ml, 0.006 M, pH 2.8): 5.33 Units/μl
Structure (SMILES): CC(=O)O [Acetic acid, acetic acid]

Structure (SMILES): CC(O)C(=O)O (stereo not shown) [Lactic acid, lactic acid]
- Cookie dough pH [2]: 7.65 and 7.52
- break flour pH ([3]; break flour fraction before recombining): 4.88
- fine bran pH ([3]; fine bran fraction before recombining): 4.52
- Flour pH [3, 7]: 5.54 and 5.56
- Flour pH ([3]; soft red whole grain flour from treated wheat): 5.6
- flour strength as measured by lactic acid SRC value ([4]; as a function of temper time and amount of lactic acid added, FIG. 7): did not decrease flour strength
- Flour SRC Lactic acid [4, 7]: 69.11 and 69.40
- Flour SRC Sodium carbonate [4, 7]: 76.58 and 78.67
- Flour SRC Water [4, 7]: 59.53 and 60.35
- Flour SRC sucrose [4, 7]: 95.77 and 94.23
- Lipase activity ([1]; 40 min acid pre-treat 0.02 g/15 ml, 0.015 M, pH 2.85): 6.45 Units/μl
- Lipase activity ([1]; 40 min acid pre-treat 0.04 g/15 ml, 0.030 M, pH 2.57): 5.8 Units/μl
- Lipase activity ([1]; 40 min acid pre-treat 0.08 g/15 ml, 0.059 M, pH 2.48): 4.15 Units/μl
- Flour fatty acid formation ([5]; after 28 days at 92 F, about 9000 ppm lactic acid concentration and 4.5 pH): 1425 ppm
- Flour fatty acid formation [5, 8]: 1382 ppm
- Whole grain flour fatty acid content after storage ([5]; storage at 82 F, compared to control, Example 9): reduced compared to control
- FFA (ppm) 3 week at 28 C. ([5]; whole grain flour, lactic acid 3000 ppm, green tea extract 7000 ppm (dry weight/initial kernel weight)): 2628 ppm and 2364 ppm
- coarse bran moisture [6]: 14.49

Structure (SMILES): Cl [hydrochloric acid]
- Lipase activity ([1]; 40 min acid pre-treat 0.02 g/15 ml, 0.036 M, pH 1.5): 0 Units/μl
- Flour fatty acid formation [5, 8]: 746 ppm

Structure (SMILES): O=P(O)(O)O [phosphoric acid]
- Flour fatty acid formation [5, 8]: 1592 ppm
